Assay results as given in article PMC10106510 (European Journal of Medicinal Chemistry, 2023).

Columns and labels:
[1] = molecular target: T1, SARS-CoV-2 PLpro (Severe acute respiratory syndrome coronavirus 2, UniProt P0DTD1); details: cited from earlier work
[2] = test system: MERS-CoV PLpro; details: cited from earlier work
[3] = molecular target: CYP3A4 (Homo sapiens, UniProt P08684)
[4] = molecular target: T1, SARS-CoV-2 PLpro; test: Papain-like protease; details: variable results in dose-dependent study, IC50 not determined
[5] = test system: SARS-CoV-2 RNA (ORF1b, Spike) in infected Caco-2 cells; assay type: cell-based
[6] = test system: SARS-CoV-2 infected Caco-2 cells (IFN-α, IL-6, OAS1 mRNA); assay type: cell-based, Human; details: 20 μg/mL
[7] = test system: Balb/c mice; details: 25, 50, and 100 mg/kg, intraperitoneal
[8] = test system: Balb/c mice

CYP3A4, sequence (P08684 whole entry): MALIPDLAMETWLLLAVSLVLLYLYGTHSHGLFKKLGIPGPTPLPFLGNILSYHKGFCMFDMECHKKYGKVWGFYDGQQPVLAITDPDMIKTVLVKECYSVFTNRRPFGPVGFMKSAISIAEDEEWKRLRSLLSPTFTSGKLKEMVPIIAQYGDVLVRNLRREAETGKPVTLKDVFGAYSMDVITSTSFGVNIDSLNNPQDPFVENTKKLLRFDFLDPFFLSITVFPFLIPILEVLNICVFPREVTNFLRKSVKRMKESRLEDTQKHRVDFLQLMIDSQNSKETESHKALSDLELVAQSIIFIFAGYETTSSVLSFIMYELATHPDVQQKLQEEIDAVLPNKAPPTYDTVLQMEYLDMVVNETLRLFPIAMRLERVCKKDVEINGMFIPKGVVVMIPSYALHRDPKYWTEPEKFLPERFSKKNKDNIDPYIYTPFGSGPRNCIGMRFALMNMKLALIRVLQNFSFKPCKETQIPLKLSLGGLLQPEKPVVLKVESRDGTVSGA

For `Cc1ccc(N)cc1C(=O)N[C@H](C)c1cccc2ccccc12` [GRL0617], the “inhibitory activity in a cell-based assay” value [1] is given as “moderate to weak” and the “activity against MERS-CoV PLpro” value [2] is given as “inactivity”.
With `CC1(C)[C@H]2COc3ccc4ccccc4c3[C@H]2N=C2SC=C(c3ccc(S(=O)(=O)N4CCOCC4)cc3)N21` [SIMR1493] the “CYP3A4 IC50” value [3] was 134 µM.
With `COC(=O)C[C@@H]1COc2ccccc2[C@H](C(=O)NC(C)(C)C)N(CCc2c[nH]c3ccc(OC)cc23)C(=O)[C@@H]1c1nnc(-c2cccc(C(F)(F)F)c2)o1` [SIMR2304] the “PLpro inhibitory activity, initial screening” value [4] was “very strong inhibitory activity”.
In the case of `COc1ccc2[nH]c3c(c2c1)C[C@]1(OC)CC[C@H]2c4[nH]c5ccccc5c4CCN2[C@@H]1C3` [SIMR3030], the “Spike RNA inhibition” value ([5]; 20 μg/mL, 1, 6 and 12 h) is reported as “observed only after 6 and 12 h”, the “viral ORFb1 RNA inhibition” value ([5]; 20 μg/mL, at 1, 6 and 12 h) is reported as “more than 70%” and the “IL-6 mRNA expression” value ([6]; at 1, 3 and 12 h) is reported as “significantly reduced”. For the same molecule, the “OAS1 mRNA expression” value ([6]; at 1, 3 and 12 h) was “significantly reduced”, the “IFN-α mRNA expression” value ([6]; at 1 and 3 h) was “significantly reduced” and the “signs of toxicity or body weight loss, single dose” value [7] was “no signs of toxicity or body weight loss”. For the same molecule, the platelet population ([8]; 25 mg/kg multiple dose, hematological analysis) was “slight reduction”, the “signs of toxicity or weight loss, multiple dose” value ([8]; 12.5 and 25 mg/kg, intraperitoneal, daily for 14 days) was “no signs of toxicity or weight loss” and the “microscopic investigation of organs (liver, spleen, kidneys, heart, lungs)” value ([8]; H&E staining, 12.5 and 25 mg/kg multiple dose) was “no histologic variations and no signs of toxic injury”.
